# Laboratory results taken from patent publication US20050197372A1 (priority 2002, published 2005).
# What was measured:
# [1] = system: platelet glycoprotein IIb/IIIa antigen (GPIIb, CD41); experiment: Whole blood flow cytometry, GP IIb/IIIa antigen expression; assay type: cell-based, human; conditions: for Expression of platelet glycoprotein IIb/IIIa antigen (GPIIb, CD41): baseline 521.8 ± 98.2
# Method: (§1) None of them received aspirin or any other anti-platelet agents. All subjects underwent blood sampling after at least 30 minutes of rest and 2 or more hours of fasting. Blood was drawn between 8 and 10 a.m. in order to avoid any diurnal influence and sampled from an antecubital vein using a 21-gauge butterfly needle containing 3.8% sodium citrate (1:9 volume) after having discarded the first 1.5 ml of free running blood. Eleven Vacutainer tubes (4.5 ml) were collected for a total of 49 ml of whole blood-citrate mixture from each study participant. One tube was kept as an internal control and was incubated with buffer solution. […] To avoid possible observer bias, blood samples were coded and blinded. Sampling procedures, and platelet studies were performed by individuals unaware of the protocol.
# (§2) The expression of platelet receptors was determined by using the following monoclonal antibodies: CD31 (platelet endothelial cell adhesion molecule (PECAM-1), CD41 (glycoprotein [GP] IIb/IIIa, (IIb (3), CD42b (GP Ib), CD 51/CD61 ((v (3, or vitronectin receptor), CD62p (P-selectin), CD107a (lysosome associated membrane protein-1; LAMP-1), CD 107b (LAMP-2), CD151 (platelet/endothelial tetraspan antigen-3; PETA-3), and PAC-1 for fibrinogen-platelet (PharMingen, San Diego, Calif.). Platelet-leukocyte interactions were assessed by using dual antibodies for a pan-platelet marker (CD 151), together with CD14, a monocyte/macrophage marker. The blood-citrate mixture (50 μl) was diluted with 450 μl Tris buffered saline (TBS) (10 mmol/L Tris, 0.15 mol/L sodium chloride) and mixed by gently inverting an Eppendorf tube 2 times. Five μl of the corresponding antibodies were then added to each solution and the samples were incubated for 30 minutes. After incubation, 400 μl of 2% buffered paraformaldehyde was added for fixation. The samples were analyzed by a Becton Dickinson FACScan flow cytometer set up to measure fluorescent light scatter, as described in Gurbel P A, et al., J Am Coll Cardiol. 1998; 31: 1466-1473. The data were collected in list mode files and then analyzed. P selectin was expressed as percent positive cells as described in Gurbel P A, et al, Am Heart J 2000; 139: 320-328. Other antigens were expressed as log mean fluorescence intensity.
# [2] = system: platelet/endothelial cell adhesion molecule-1 (PECAM-1, CD31); experiment: Whole blood flow cytometry, PECAM-1 expression; assay type: cell-based, human; conditions: for Expression of platelet/endothelial cell adhesion molecule-1 (PECAM-1, CD31): baseline 69.2 ± 10.3
# Method: as §1, §2
# [3] = system: platelet vitronectin receptor (CD51/CD61); experiment: Whole blood flow cytometry, vitronectin receptor expression; assay type: cell-based, human; conditions: for Expression of platelet vitronectin receptor (CD51/CD61): baseline 11.2 ± 4.6
# Method: as §1, §2
# [4] = system: human platelets (platelet-rich plasma); experiment: Platelet-rich plasma aggregation induced by 5 μM ADP; assay type: cell-based; conditions: for Platelet rich plasma aggregation induced by 5 μM ADP: 60 minutes at 37° C., baseline 75 ± 8
# Method: as §1
# The citrate and whole blood mixture were centrifuged at 1200 g for 5 minutes in order to obtain platelet-rich plasma (PRP) which was kept at room temperature for use within 1 hour. Platelet counts were determined for each PRP sample with a Coulter Counter ZM (Coulter Co., Hialeah, Fla.). Platelet numbers were adjusted to 3.50×10 ^8/ml with homologous platelet-poor plasma. Platelet aggregation (PA) was induced by 5 μM ADP, and 5 μM epinephrine. All agonists were obtained from Chronolog Corporation (Havertown, Pa.). Aggregation studies were performed using a 4 channel Chronolog Lumi-Aggregometer (model 560-Ca). Aggregation was expressed as the maximum percentage of light transmittance change (% max) from the baseline at the end of the recording time, using platelet-poor plasma as a reference. Aggregation curves were recorded for 6 minutes and analyzed according to internationally established standards. Ruggeri Z M, Semin Hemat 1994; 31: 229-239.
# [5] = system: Glycoprotein IIb/IIIa activity (fibrinogen binding, PAC-1); experiment: Whole blood flow cytometry, GP IIb/IIIa activity (PAC-1); assay type: cell-based, human; conditions: for Glycoprotein IIb/IIIa activity (fibrinogen binding, PAC-1): baseline 10.3 ± 2.8
# Method: as §1, §2
# [6] = system: glycoprotein Ib (GPIb, CD42b); experiment: Whole blood flow cytometry, GP Ib expression; assay type: cell-based, human; conditions: for Expression of glycoprotein Ib (GPIb, CD42b): baseline 246.4 ± 26.7
# Method: as §1, §2
# [7] = system: lysosome associated membrane protein -2 (LAMP-2, CD107b); experiment: Whole blood flow cytometry, LAMP-2 expression; assay type: cell-based, human; conditions: for Expression of lysosome associated membrane protein -2 (LAMP-2, CD107b): baseline 6.6 ± 2.1
# Method: as §1, §2
# [8] = system: platelet-leukocyte microparticles (CD151 + CD14); experiment: Whole blood flow cytometry, platelet-leukocyte microparticles; assay type: cell-based, human; conditions: for Formation of platelet-leukocyte microparticles (CD151 + CD14): baseline 92.2 ± 19.3
# Method: as §1, §2
# [9] = system: shear-induced platelet aggregation; experiment: PFA-100 closure time, epinephrine/collagen cartridge; assay type: cell-based, human; conditions: for PFA-100 closure time with the epinephrine/collagen cartridge: baseline 201 ± 22
# Method: as §1
# The platelet function analyzer (PFA-100′, Dade Behring, Deerfield, Ill.) is a device that simulates changes in primary hemostasis after injury to a small vessel under flow conditions. Kundu S K, et al., Semin Thromb Hemost 1995; 21(Suppl 2): 106-112. The time required to obtain occlusion of the aperture was digitally recorded as a measure of shear-induced platelet aggregation. Closure time determinations were performed in duplicate.
structure (smiles),measurement,setting,value
"CC(O)CCC(=O)N(Cc1ccc(-c2ccccc2-c2nnn[nH]2)cc1)[C@H](C(=O)O)C(C)C (stereo partly drawn) [Valeryl 4-hydroxy valsartan, (S)-2{(4-Hydroxy-pentanoyl)-[2′-(1H-tetrazol-5-yl)-biphenyl-4-ylmethyl]amino}-3-methyl-butyric Acid]","Expression of platelet glycoprotein IIb/IIIa antigen (GPIIb, CD41)",[1]; drug 10 nM,505.6 ± 77.8 log MFI
same,"Expression of platelet glycoprotein IIb/IIIa antigen (GPIIb, CD41)",[1]; drug 100 nM,432.7 ± 116.8 log MFI
same,"Expression of platelet glycoprotein IIb/IIIa antigen (GPIIb, CD41)",[1]; drug 1 μM,427.2 ± 114.1 log MFI
same,"Expression of platelet glycoprotein IIb/IIIa antigen (GPIIb, CD41)",[1]; drug 10 μM,515.9 ± 156.2 log MFI
same,"Expression of platelet glycoprotein IIb/IIIa antigen (GPIIb, CD41)",[1]; drug 100 μM,529.3 ± 121.8 log MFI
same,Effect on expression of GP IIb/IIIa (CD 41) (in words),[1]; whole blood flow cytometry,slightly reduced
same,"Expression of platelet/endothelial cell adhesion molecule-1 (PECAM-1, CD31)",[2]; drug 10 nM,74.2 ± 13.4 log MFI
same,"Expression of platelet/endothelial cell adhesion molecule-1 (PECAM-1, CD31)",[2]; drug 100 nM,69.7 ± 15.1 log MFI
same,"Expression of platelet/endothelial cell adhesion molecule-1 (PECAM-1, CD31)",[2]; drug 1 μM,70.3 ± 16.4 log MFI
same,"Expression of platelet/endothelial cell adhesion molecule-1 (PECAM-1, CD31)",[2]; drug 10 μM,73.1 ± 9.3 log MFI
same,"Expression of platelet/endothelial cell adhesion molecule-1 (PECAM-1, CD31)",[2]; drug 100 μM,71.2 ± 15.5 log MFI
same,Effect on PECAM-1 (CD31) (in words),[2]; whole blood flow cytometry,not associated with any effect
same,Expression of platelet vitronectin receptor (CD51/CD61),[3]; drug 10 nM,12.1 ± 4.2 log MFI
same,Expression of platelet vitronectin receptor (CD51/CD61),[3]; drug 100 nM,8.5 ± 3.1 log MFI
same,Expression of platelet vitronectin receptor (CD51/CD61),[3]; drug 1 μM,8.1 ± 3.8 log MFI
same,Expression of platelet vitronectin receptor (CD51/CD61),[3]; drug 10 μM,7.2 ± 5.6 log MFI
same,Expression of platelet vitronectin receptor (CD51/CD61),[3]; drug 100 μM,7.6 ± 3.3 log MFI
same,Effect on expression of vitronectin receptors (in words),[3]; whole blood flow cytometry,moderately reduced
same,Effect on ADP-induced platelet aggregation (in words),"[4]; PRP, 5 μM ADP, preincubation with escalating doses 10 nM to 100 μM",did not have any effect
same,Platelet rich plasma aggregation induced by 5 μM ADP,[4]; drug 10 nM,75 ± 6%
same,Platelet rich plasma aggregation induced by 5 μM ADP,[4]; drug 100 nM,76 ± 8%
same,Platelet rich plasma aggregation induced by 5 μM ADP,[4]; drug 1 μM,77 ± 9%
same,Platelet rich plasma aggregation induced by 5 μM ADP,[4]; drug 10 μM,76 ± 8%
same,Platelet rich plasma aggregation induced by 5 μM ADP,[4]; drug 100 μM,77 ± 9%
same,"Glycoprotein IIb/IIIa activity (fibrinogen binding, PAC-1)",[5]; drug 10 nM,11.0 ± 4.5 log MFI
same,"Glycoprotein IIb/IIIa activity (fibrinogen binding, PAC-1)",[5]; drug 100 nM,9.0 ± 3.3 log MFI
same,"Glycoprotein IIb/IIIa activity (fibrinogen binding, PAC-1)",[5]; drug 1 μM,6.7 ± 2.7 log MFI
same,"Glycoprotein IIb/IIIa activity (fibrinogen binding, PAC-1)",[5]; drug 10 μM,7.5 ± 3.1 log MFI
same,"Glycoprotein IIb/IIIa activity (fibrinogen binding, PAC-1)",[5]; drug 100 μM,9.9 ± 3.0 log MFI
same,Effect on fibrinogen binding (PAC-1) (in words),[5]; whole blood flow cytometry,slightly reduced
same,"Expression of glycoprotein Ib (GPIb, CD42b)",[6]; drug 10 nM,236.4 ± 18.7 log MFI
same,"Expression of glycoprotein Ib (GPIb, CD42b)",[6]; drug 100 nM,267.9 ± 39.4 log MFI
same,"Expression of glycoprotein Ib (GPIb, CD42b)",[6]; drug 1 μM,255.5 ± 24.8 log MFI
same,"Expression of glycoprotein Ib (GPIb, CD42b)",[6]; drug 10 μM,249.7 ± 41.8 log MFI
same,"Expression of glycoprotein Ib (GPIb, CD42b)",[6]; drug 100 μM,248.1 ± 19.5 log MFI
same,Effect on GP Ib (CD42) (in words),[6]; whole blood flow cytometry,not associated with any effect
same,"Expression of lysosome associated membrane protein -2 (LAMP-2, CD107b)",[7]; drug 10 nM,7.7 ± 3.8 log MFI
same,"Expression of lysosome associated membrane protein -2 (LAMP-2, CD107b)",[7]; drug 100 nM,7.0 ± 3.0 log MFI
same,"Expression of lysosome associated membrane protein -2 (LAMP-2, CD107b)",[7]; drug 1 μM,6.6 ± 3.4 log MFI
same,"Expression of lysosome associated membrane protein -2 (LAMP-2, CD107b)",[7]; drug 10 μM,7.2 ± 3.9 log MFI
same,"Expression of lysosome associated membrane protein -2 (LAMP-2, CD107b)",[7]; drug 100 μM,7.1 ± 2.9 log MFI
same,Effect on LAMP-2 (CD107b) (in words),[7]; whole blood flow cytometry,not associated with any effect
same,Formation of platelet-leukocyte microparticles (CD151 + CD14),[8]; drug 10 nM,99.4 ± 29.7 log MFI
same,Formation of platelet-leukocyte microparticles (CD151 + CD14),[8]; drug 100 nM,94.3 ± 18.7 log MFI
same,Formation of platelet-leukocyte microparticles (CD151 + CD14),[8]; drug 1 μM,90.7 ± 20.5 log MFI
same,Formation of platelet-leukocyte microparticles (CD151 + CD14),[8]; drug 10 μM,89.2 ± 18.7 log MFI
same,Formation of platelet-leukocyte microparticles (CD151 + CD14),[8]; drug 100 μM,95.6 ± 19.9 log MFI
same,Effect on platelet-leukocyte microparticles (CD151+14) (in words),[8]; whole blood flow cytometry,not associated with any effect
same,Antiplatelet properties compared with valsartan (in words),[9]; cartridge-based analyzers (PFA-100 and Ultegra),stronger antiplatelet properties than valsartan
same,PFA-100 closure time with the epinephrine/collagen cartridge,[9]; drug 10 nM,179 ± 28 s
same,PFA-100 closure time with the epinephrine/collagen cartridge,[9]; drug 100 nM,190 ± 24 s
same,PFA-100 closure time with the epinephrine/collagen cartridge,[9]; drug 1 μM,259 ± 20 s
same,PFA-100 closure time with the epinephrine/collagen cartridge,[9]; drug 10 μM,257 ± 25 s
same,PFA-100 closure time with the epinephrine/collagen cartridge,[9]; drug 100 μM,232 ± 31 s
